The results in this text go back to patent US20230117034A1, “PYRAZOLOTRIAZINES” (Bayer Aktiengesellschaft, priority 2019, published 2023).

Assay [1] has as its system BRCA1 mRNA expression in MDA-MB-231 cells. As to the kind of experiment: qRT-PCR assay: BRCA1 mRNA expression in MDA-MB-231. Type of assay: cell-based, human. The following applies: Homo sapiens, MDA-MB-231, Inhibition of BRCA1 mRNA expression in MDA-MB-231 cells; median; read-out: RTqPCR-MDA-MB-231, IC50, BRCA1 (median). The method, then: 3. qRT-PCR Assay: BRCA, ATR, MCL1 in MDA-MB-231, CAL-120
Tissue cultured human MDA-MB-231 human breast cancer cells were plated in 500 microL per well at 200,000 cells/well in a 24 well microtiter plate. After 24 h, the cells were exposed continuously for 24 h to test substances (substances were added with Tecan HP 0300 Dispenser). RNA was prepared using Qiagen RNeasy MiniKit (#74106), RNA was quantified using a NanoDrop Equipment, and 600 nano gamms of RNA was coverted to cDNA using a SuperScript VILO kit (Thermofisher #11755050) followed by qPCR amplification. BRCA1 and ATR gene expression was measured by RT-qPCR and normalised to GAPDH housekeeping gene expression. qPCR primer sets have been purchased from Thermo Fisher Scientific/Applied Biosystems: BRCA1, #Hs 01556193; ATR, #Hs 00992123; GAPDH, #Hs 03929097.

The target in assay [2] is T1, CDK2/CycE (Homo sapiens, UniProt P24941).
T1 construct: purchased ProQinase GmbH (Freiburg, Germany); host or cells: insect cells (Sf9)
Nature of the assay: CDK2/CycE kinase assay (TR-FRET, 2 mM ATP). Type of assay: biochemical. Particulars: 2 mM ATP (high ATP); median; read-out: CDK2/CyclinE, 2 mM ATP (high ATP), IC50 (median). The source says: CDK2/CycE-inhibitory activity of compounds of the present invention was quantified employing the CDK2/CycE TR-FRET assay as described in the following paragraphs.
Recombinant fusion proteins of GST and human CDK2 and of GST and human CycE, expressed in insect cells (Sf9) and purified by Glutathion-Sepharose affinity chromatography, were purchase from ProQinase GmbH (Freiburg, Germany). As substrate for the kinase reaction biotinylated peptide biotin-Ttds-YISPLKSPYKISEG (C-terminus in amid form) was used which can be purchased e.g. form the company JERINI peptide technologies (Berlin, Germany).
For the assay 50 nanoL of a 100 fold concentrated solution of the test compound in DMSO was pipetted into a black low volume 384 well microtiter plate or a black 1536 well microtiter plate (both Greiner Bio-One, Frickenhausen, Germany), 2 microL of a solution of CDK2/CycE in aqueous assay buffer [50 millimol/L Tris/HCl pH 8.0, 10 millimol/L MgCl2, 1.0 millimol/L dithiothreitol, 0.1 millimol/L sodium ortho-vanadate, 0.01% (v/v) Nonidet-P40 (Sigma)] were added and the mixture was incubated for 15 min at 22° C. to allow pre-binding of the test compounds to the enzyme before the start of the kinase reaction. Then the kinase reaction was started by the addition of 3 microL of a solution of adenosine-tri-phosphate (ATP, 3.33 millimol/L=>final conc. in the 5 microL assay volume is 2 millimol/L) and substrate (1.25 micromol/L=>final conc. in the 5 microL assay volume is 0.75 micromol/L) in assay buffer and the resulting mixture was incubated for a reaction time of 25 min at 22° C. The concentration of CDK2/CycE was adjusted depending of the activity of the enzyme lot and was chosen appropriate to have the assay in the linear range, typical concentrations were in the range of 10 ng/ml. The reaction was stopped by the addition of 3 microL of a solution of TR-FRET detection reagents (0.333 micromol/L streptavidine-XL665 [Cisbio Bioassays, Codolet, France] and 1.67 nanomol/L anti-RB(pSer807/pSer8l 1)-antibody from BD Pharmingen [#558389] and 2 nanomol/L LANCE EU-W1024 labeled anti-mouse IgG antibody [Perkin-Elmer, product no. AD0077, as an alternative a Terbium-cryptate-labeled anti-mouse IgG antibody from Cisbio Bioassays can be used]) in an aqueous EDTA-solution (167 millimol/L EDTA, 0.2% (w/v) bovine serum albumin in 100 millimol/L HEPES pH 7.5).
The resulting mixture was incubated 1 h at 22° C. to allow the formation of complex between the phosphorylated biotinylated peptide and the detection reagents. Subsequently the amount of phosphorylated substrate was evaluated by measurement of the resonance energy transfer from the Eu-chelate to the streptavidine-XL. Therefore, the fluorescence emissions at 620 nm and 665 nm after excitation at 350 nm was measured in a TR-FRET reader, e.g. a Pherastar (BMG Labtechnologies, Offenburg, Germany) or a Viewlux (Perkin-Elmer). The ratio of the emissions at 665 nm and at […] was taken as the measure for the amount of phosphorylated substrate. The data were normalised (enzyme reaction without inhibitor=0% inhibition, all other assay components but no enzyme=100% inhibition).

The target in assay [3] is T2, CDK12 (nuclear staining in CAL-120 cells) (Homo sapiens, UniProt Q9NYV4).
T2 construct: endogenous in cells; host or cells: CAL-120 human breast cancer cells (DSMZ ACC 459)
T2 sequence (Q9NYV4 whole entry): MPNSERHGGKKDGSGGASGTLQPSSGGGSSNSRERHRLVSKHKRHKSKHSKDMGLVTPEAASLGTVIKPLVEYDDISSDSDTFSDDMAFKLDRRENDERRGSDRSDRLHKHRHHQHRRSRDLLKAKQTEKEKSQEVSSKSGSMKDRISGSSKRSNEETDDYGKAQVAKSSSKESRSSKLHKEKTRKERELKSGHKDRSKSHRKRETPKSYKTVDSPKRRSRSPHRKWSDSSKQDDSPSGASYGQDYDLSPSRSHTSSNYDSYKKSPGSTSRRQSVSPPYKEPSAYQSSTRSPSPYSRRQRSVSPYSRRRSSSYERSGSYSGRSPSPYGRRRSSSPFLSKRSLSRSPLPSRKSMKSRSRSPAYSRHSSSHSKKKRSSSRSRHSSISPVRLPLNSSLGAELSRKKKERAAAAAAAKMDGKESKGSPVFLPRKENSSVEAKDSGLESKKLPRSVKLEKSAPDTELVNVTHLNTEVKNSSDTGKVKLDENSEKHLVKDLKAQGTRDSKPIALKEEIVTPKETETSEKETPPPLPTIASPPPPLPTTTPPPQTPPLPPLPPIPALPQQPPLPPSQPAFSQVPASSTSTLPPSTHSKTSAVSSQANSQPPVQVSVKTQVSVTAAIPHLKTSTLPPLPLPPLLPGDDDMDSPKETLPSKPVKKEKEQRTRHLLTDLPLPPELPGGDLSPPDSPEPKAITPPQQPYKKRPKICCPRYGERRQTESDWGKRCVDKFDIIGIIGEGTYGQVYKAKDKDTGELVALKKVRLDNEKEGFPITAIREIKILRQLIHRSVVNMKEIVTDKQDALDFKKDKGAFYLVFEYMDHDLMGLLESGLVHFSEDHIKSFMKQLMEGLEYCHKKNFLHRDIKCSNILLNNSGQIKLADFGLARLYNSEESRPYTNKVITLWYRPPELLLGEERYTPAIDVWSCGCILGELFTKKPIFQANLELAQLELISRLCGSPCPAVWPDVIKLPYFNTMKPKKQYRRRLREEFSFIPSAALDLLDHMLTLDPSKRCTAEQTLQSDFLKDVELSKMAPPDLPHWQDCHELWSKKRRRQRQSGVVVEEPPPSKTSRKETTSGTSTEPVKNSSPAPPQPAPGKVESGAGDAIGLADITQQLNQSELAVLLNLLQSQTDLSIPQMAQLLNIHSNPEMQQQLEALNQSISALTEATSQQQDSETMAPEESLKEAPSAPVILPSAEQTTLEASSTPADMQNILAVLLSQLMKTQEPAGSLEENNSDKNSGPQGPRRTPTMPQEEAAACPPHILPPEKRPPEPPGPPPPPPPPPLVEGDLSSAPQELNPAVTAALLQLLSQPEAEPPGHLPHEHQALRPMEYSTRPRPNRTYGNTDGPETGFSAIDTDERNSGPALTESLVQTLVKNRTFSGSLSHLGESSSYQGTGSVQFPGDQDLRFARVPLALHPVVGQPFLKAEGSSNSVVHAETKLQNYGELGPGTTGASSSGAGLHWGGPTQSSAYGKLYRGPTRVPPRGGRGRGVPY
T2 sequence (O75909 whole entry partner): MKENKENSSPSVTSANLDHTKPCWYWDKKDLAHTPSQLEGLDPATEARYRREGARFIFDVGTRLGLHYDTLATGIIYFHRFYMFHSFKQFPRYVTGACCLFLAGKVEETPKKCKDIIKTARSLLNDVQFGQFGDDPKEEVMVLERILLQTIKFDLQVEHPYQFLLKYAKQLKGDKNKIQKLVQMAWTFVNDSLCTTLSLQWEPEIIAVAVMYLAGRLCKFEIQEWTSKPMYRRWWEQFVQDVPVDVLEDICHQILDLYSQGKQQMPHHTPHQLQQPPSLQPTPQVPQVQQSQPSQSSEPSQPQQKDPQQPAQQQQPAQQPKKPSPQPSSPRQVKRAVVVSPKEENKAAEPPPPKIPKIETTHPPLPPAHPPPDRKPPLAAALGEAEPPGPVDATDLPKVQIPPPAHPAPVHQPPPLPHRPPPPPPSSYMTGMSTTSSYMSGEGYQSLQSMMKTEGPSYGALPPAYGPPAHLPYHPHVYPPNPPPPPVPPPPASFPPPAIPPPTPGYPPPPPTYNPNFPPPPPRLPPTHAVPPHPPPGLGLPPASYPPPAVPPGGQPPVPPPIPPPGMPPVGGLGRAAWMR
Nature of the assay: CDK12 nuclear protein level: immunofluorescence/high content analysis (CAL-120). The following applies: for DC50: CAL-120 cells, 24 h, immunofluorescence, 50% reduction of nuclear CDK12 staining intensity, median, read-out: CDK12 degradation IF, DC50- [mol/l] (median); for (IC50 CDK12 high ATP) to (Degradation DC50 CDK12) ratio: ratio of IC50 CDK12 high ATP kinase assay to DC50 CDK12 degradation (IF, CAL-120). Type of assay: cell-based. The method, then: In the context of the present invention, the term “DC50 CDK12” refers to the DC50 values obtained according to the assay described in this section (7) herein below, i.e. the DC50 values for the degradation of CDK12.
Plates are then incubated for 24 h at 37° C. in an humidified incubator and fixed with 4% PFA for 10 min. […] Nuclear and cytoplasmic intensity as well as the nuclear/cytoplasmic intensity ratio is determined by automated image analysis using custom generated scripts (MetaXpress). Data is then transferred to Genedata Screener software, normalized to DMSO and control and DC50 values (degrading concentration to achieve 50% reduction of nuclear CDK12 staining intensity relative to controls) are reported.

For `c1ccc2[nH]c(CNc3nc(N4CCOCC4)nc4c(-c5ccncc5)cnn34)nc2c1` [Example 111, N-[(1H-benzimidazol-2-yl)methyl]-2-(morpholin-4-yl)-8-(pyridin-4-yl)pyrazolo[1,5-a][1,3,5]triazin-4-amine hydrogen chloride (1/1)], the IC50 in assay [1] stood at 15.3 nM. In assay [2], the IC50 is over 20000 nM. In assay [3], the DC50 was 1.22 nM and the “(IC50 CDK12 high ATP) to (Degradation DC50 CDK12) ratio” value is given as over 1337.
For `NCCc1ccc2[nH]c(CNc3nc(N4CCOCC4)nc4c(Br)cnn34)nc2c1.O=CO` [Example 113, formic acid-N-{[5-(2-aminoethyl)-1H-benzimidazol-2-yl]methyl}-8-bromo-2-(morpholin-4-yl)pyrazolo[1,5-a][1,3,5]triazin-4-amine (1/1)], the IC50 in assay [1] turned out to be 21.1 nM. The IC50 in assay [2] worked out at 1200 nM. Besides, in assay [3], the DC50 was 8.64 nM and the “(IC50 CDK12 high ATP) to (Degradation DC50 CDK12) ratio” value is 197.
Take `Fc1cc(-c2nnc(CNc3nc(N4CCOCC4)nc4c(Br)cnn34)[nH]2)cc(F)c1F` [Example 100, 8-bromo-2-(morpholin-4-yl)-N-{[5-(3,4,5-trifluorophenyl)-4H-1,2,4-triazol-3-yl]methyl}pyrazolo[1,5-a][1,3,5]triazin-4-amine]: in assay [1], the IC50 was 62.2 nM. In addition, the IC50 in assay [2] was found to be 1830 nM. Also, in assay [3], the DC50 was 10.2 nM and the “(IC50 CDK12 high ATP) to (Degradation DC50 CDK12) ratio” value turned out to be 122.
For `C[C@H]1CCCCN1c1nc(NCc2nc3ccccc3[nH]2)n2ncc(Br)c2n1` [Example 141, N-[(1H-benzimidazol-2-yl)methyl]-8-bromo-2-[(2S)-2-methylpiperidin-1-yl]pyrazolo[1,5-a][1,3,5]triazin-4-amine] the same measures were 16.4 nM, 707 nM, 6.11 nM and 214.
The matching figures for `Clc1cccc(-c2cnn3c(NCc4nc5ccccc5[nH]4)nc(N4CCOCC4)nc23)c1` [Example 107, N-[(1H-benzimidazol-2-yl)methyl]-8-(3-chlorophenyl)-2-(morpholin-4-yl)pyrazolo[1,5-a][1,3,5]triazin-4-amine]: 151 nM, over 20000 nM, 57.7 nM and over 347.
With `CN1CCN(c2nc(NCc3nc4cc(F)ccc4[nH]3)n3ncc(C4CC4)c3n2)CC1` [Example 164, 8-cyclopropyl-N-[(5-fluoro-1H-benzimidazol-2-yl)methyl]-2-(4-methylpiperazin-1-yl)pyrazolo[1,5-a][1,3,5]triazin-4-amine], in assay [1], the IC50 was determined as 2.55 nM. The IC50 in assay [2] is over 20000 nM. In assay [3], the DC50 was found to be 0.99 nM and the “(IC50 CDK12 high ATP) to (Degradation DC50 CDK12) ratio” value is given as over 20194.
Consider `C[C@@H]1CN(c2nc(NCc3nc4ccccc4[nH]3)n3ncc(Br)c3n2)C[C@H](C)N1` [Example 142, N-(1H-benzimidazol-2-ylmethyl)-8-bromo-2-[(3R,5S)-3,5-dimethylpiperazin-1-yl]pyrazolo[1,5-a][1,3,5]triazin-4-amine], for which, in assay [1], the IC50 was determined as 19.1 nM. The IC50 in assay [2] was over 19800 nM. For the same compound, in assay [3], the DC50 was 1.62 nM and the “(IC50 CDK12 high ATP) to (Degradation DC50 CDK12) ratio” value was 6679.
For `C[C@@H]1CN(c2nc(NCc3nc4c(F)cccc4[nH]3)n3ncc(Br)c3n2)C[C@H](C)O1` [Example 109, 8-bromo-2-[(2R,6S)-2,6-dimethylmorpholin-4-yl]-N-[(4-fluoro-1H-benzimidazol-2-yl)methyl]pyrazolo[1,5-a][1,3,5]triazin-4-amine] the same measures were 1.34 nM, 4010 nM, 1.09 nM and 162.
For `CC1(C)CN(c2nc(NCc3nnc(-c4ccccc4)[nH]3)n3ncc(C4CC4)c3n2)CCO1` [Example 94, 8-cyclopropyl-2-(2,2-dimethylmorpholin-4-yl)-N-[(5-phenyl-4H-1,2,4-triazol-3-yl)methyl]pyrazolo[1,5-a][1,3,5]triazin-4-amine] the same measures were 222 nM, over 20000 nM, 25 nM and 352.
For `NCCc1cccc2[nH]c(CNc3nc(N4CCOCC4)nc4c(Br)cnn34)nc12` [Example 112, N-{[7-(2-aminoethyl)-1H-benzimidazol-2-yl]methyl}-8-bromo-2-(morpholin-4-yl)pyrazolo[1,5-a][1,3,5]triazin-4-amine], the IC50 in assay [1] came out at 23.7 nM. The IC50 in assay [2] turned out to be 4340 nM. Also, in assay [3], the DC50 amounted to 50 nM and the “(IC50 CDK12 high ATP) to (Degradation DC50 CDK12) ratio” value is 134.
Take `Brc1cnn2c(NCc3nc4ccccc4[nH]3)nc(N3CCOCC3)nc12` [Example 4, N-[(1H-benzimidazol-2-yl)methyl]-8-bromo-2-(morpholin-4-yl)pyrazolo[1,5-a][1,3,5]triazin-4-amine]: the IC50 in assay [1] was 7.13 nM. Also, the IC50 in assay [2] was found to be 2280 nM. Also, in assay [3], the DC50 was 1.07 nM and the “(IC50 CDK12 high ATP) to (Degradation DC50 CDK12) ratio” value turned out to be 1628.
For `COc1ccc2[nH]c(CNc3nc(N4CCOCC4)nc4c(Br)cnn34)nc2c1` [Example 160, 8-bromo-N-[(5-methoxy-1H-benzimidazol-2-yl)methyl]-2-(morpholin-4-yl)pyrazolo[1,5-a][1,3,5]triazin-4-amine] the same measures were 2.95 nM, 5170 nM, 1.4 nM and 889.
In the case of `Fc1ccc2[nH]c(CNc3nc(N4CCOCC4)nc4c(Br)cnn34)nc2c1` [Example 101, 8-bromo-N-[(5-fluoro-1H-benzimidazol-2-yl)methyl]-2-(morpholin-4-yl)pyrazolo[1,5-a][1,3,5]triazin-4-amine], the IC50 amounted to 3.14 nM in assay [1] and 3880 nM in assay [2]. Further, in assay [3], the DC50 was found to be 0.584 nM. The “(IC50 CDK12 high ATP) to (Degradation DC50 CDK12) ratio” value in assay [3] came to 3856.
